{"source": "patent US20030215462A1", "about": "“Use of UGT inhibitors to increase bioavailability” (priority 2001, published 2003)", "key": {"[1]": {"test_system": "T1, UGT enzymes of human liver microsomes", "T1 construct": "residual metabolism (percentage of control), labetalol LG1; other: labetalol 50 μM; residual metabolism (percentage of control), labetalol LG1; residual metabolism (percentage of control), labetalol LG2; inhi", "test": "Inhibition of labetalol glucuronidation (LG1, LG2) in human liver microsomes", "format": "biochemical", "details": "labetalol 50 μM"}, "[2]": {"test_system": "UGT enzymes of pooled human jejunum microsomes", "test": "Inhibition of raloxifene glucuronidation (G1, G2) in pooled human jejunum microsomes", "format": "biochemical", "details": "jejunum HJ61; inhibitor 10 μM", "description": "(§1) Compounds were eluted using a binary solvent gradient system. […] Solvent B was methanol. […] Detection was at 280 nm.\nStandardized incubations utilized […] microsomal protein, 1 mM UDPGA and a 30 min incubation time."}, "[3]": {"biological_target": "T2, UGT1A9 (Homo sapiens, UniProt O60656)", "T2 sequence (O60656 26-530)": "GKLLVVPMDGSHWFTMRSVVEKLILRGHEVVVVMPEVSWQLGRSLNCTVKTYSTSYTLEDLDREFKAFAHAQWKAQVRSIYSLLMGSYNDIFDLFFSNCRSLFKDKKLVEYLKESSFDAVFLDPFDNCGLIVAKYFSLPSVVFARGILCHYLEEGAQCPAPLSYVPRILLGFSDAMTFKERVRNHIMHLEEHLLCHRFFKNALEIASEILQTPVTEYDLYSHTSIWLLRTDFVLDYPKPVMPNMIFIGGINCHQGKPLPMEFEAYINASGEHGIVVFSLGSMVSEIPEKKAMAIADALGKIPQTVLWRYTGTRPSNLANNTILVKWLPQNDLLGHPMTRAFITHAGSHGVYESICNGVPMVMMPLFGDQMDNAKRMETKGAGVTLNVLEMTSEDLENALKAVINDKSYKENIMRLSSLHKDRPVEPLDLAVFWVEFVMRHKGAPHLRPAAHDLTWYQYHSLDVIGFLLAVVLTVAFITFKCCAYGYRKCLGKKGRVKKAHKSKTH", "test": "Inhibition of raloxifene glucuronidation by recombinant UGT1A9 Supersomes", "details": "for Inhibition of raloxifene glucuronidation, UGT1A9, first line per inhibitor (G1): first line (G1, metabolite not given); for Inhibition of raloxifene glucuronidation, UGT1A9, first line per inhibitor (G1) / Inhibition of raloxifene glucuronidation, UGT1A9, second line per inhibitor (G2): raloxifene 50 μM, 250 μg/ml Supersomes, 1 mM UDPGA, 15 min; for activity at 15 min, 5 µM / activity at 15 min, 10 µM / activity at 15 min, 25 µM / activity at 15 min, 50 µM: human, Supersomes with recombinant human UGT1A9, pH 7.5, probe raloxifene 50 μM; for Inhibition of raloxifene glucuronidation, UGT1A9, second line per inhibitor (G2): second line (G2, metabolite not given)"}, "[4]": {"test_system": "UGT enzymes of human liver microsomes", "test": "Inhibition of raloxifene glucuronidation (G1, G2) in human liver microsomes", "format": "biochemical", "from_the_text": "as §1"}, "[5]": {"test_system": "UGT enzymes of pooled human jejunum microsomes", "test": "Inhibition of estradiol (E2) glucuronidation in pooled human jejunum microsomes", "format": "biochemical", "details": "jejunum HJ61; E2 50 μM; inhibitor 10 μM", "from_the_text": "(§2) Compounds were eluted using a binary solvent gradient system where solvent A was dilute phosphoric acid (pH 3) and solvent B was 80:20 acetonitrile-methanol. […] Detection was at 280 nm."}, "[6]": {"biological_target": "T3, UGT1A10 (Homo sapiens, UniProt Q9HAW8)", "T3 sequence (Q9HAW8 26-530)": "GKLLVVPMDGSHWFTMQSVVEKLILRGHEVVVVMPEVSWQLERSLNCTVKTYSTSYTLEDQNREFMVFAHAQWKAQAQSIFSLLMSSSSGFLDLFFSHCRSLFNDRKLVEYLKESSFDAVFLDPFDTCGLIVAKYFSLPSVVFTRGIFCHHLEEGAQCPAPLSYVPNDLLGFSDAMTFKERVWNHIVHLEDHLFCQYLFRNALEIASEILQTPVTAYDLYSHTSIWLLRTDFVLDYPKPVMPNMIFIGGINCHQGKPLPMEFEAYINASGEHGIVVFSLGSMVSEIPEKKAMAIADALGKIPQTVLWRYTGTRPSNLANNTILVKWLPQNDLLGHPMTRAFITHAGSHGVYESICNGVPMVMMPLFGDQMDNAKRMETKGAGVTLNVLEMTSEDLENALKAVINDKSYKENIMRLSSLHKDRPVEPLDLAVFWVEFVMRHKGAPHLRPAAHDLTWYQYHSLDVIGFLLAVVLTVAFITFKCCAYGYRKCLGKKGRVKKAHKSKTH", "test": "Inhibition of raloxifene glucuronidation by recombinant UGT1A10 Bacculosomes", "details": "human, Bacculosomes with recombinant human UGT1A10, pH 7.5, probe raloxifene 50 μM; for activity at 15 min, 25 µM: inhibitor 25 μM; for activity at 15 min, 50 µM: inhibitor 50 μM", "experimental": "Compounds were eluted using a binary solvent gradient system. Solvent A was water brought to pH 8 with NH4OH. Solvent B was methanol. Solvent flow rate was 1 ml/min and the column temperature was maintained at 50° C. Detection was at 280 nm. […] The system was then returned to the initial conditions and equilibrated for 3 min."}, "[7]": {"test_system": "T4, UGT enzymes of human liver microsomes", "T4 construct": "other: liver 062101", "test": "Inhibition of 2ME2 glucuronidation (MG1, MG2) in human liver microsomes", "format": "biochemical", "details": "liver 062101, 2ME2 50 μM", "from_the_text": "as §2"}, "[8]": {"details": "liver lot 032101, inhibitor 10 μM"}, "[9]": {"details": "liver lot 062101, inhibitor 10 μM"}, "[10]": {"details": "liver lot 083000, inhibitor 10 μM"}, "[11]": {"details": "raloxifene 50 μM, inhibitor 10 μM"}, "[12]": {"details": "raloxifene 50 μM, inhibitor 25 μM"}, "[13]": {"details": "raloxifene 50 μM, inhibitor 50 μM"}, "[14]": {"details": "raloxifene 50 μM, inhibitor 100 μM"}, "[15]": {"details": "formation of glucuronide G1, % of control metabolism, raloxifene G1, UGT1A10"}, "[16]": {"details": "formation of glucuronide G2, % of control metabolism, raloxifene G2, UGT1A10"}}, "note": "“And” between values parts separate entries of the source, which are not always exact repeats. Equal values may be shown once.", "data": [{"smiles": "O=C(OC[C@H]1O[C@@H](OC(=O)c2cc(O)c(O)c(OC(=O)c3cc(O)c(O)c(O)c3)c2)[C@H](OC(=O)c2cc(O)c(O)c(OC(=O)c3cc(O)c(O)c(O)c3)c2)[C@@H](OC(=O)c2cc(O)c(O)c(OC(=O)c3cc(O)c(O)c(O)c3)c2)[C@@H]1OC(=O)c1cc(O)c(O)c(OC(=O)c2cc(O)c(O)c(O)c2)c1)c1cc(O)c(O)c(OC(=O)c2cc(O)c(O)c(O)c2)c1", "note": "[Tannic acid]", "values": [{"measurement": "residual metabolism (percentage of control), labetalol LG1", "setting": "[1]; inhibitor 50 μM", "result": "42 (1) %"}, {"measurement": "residual metabolism (percentage of control), labetalol LG2", "setting": "[1]; inhibitor 50 μM", "result": "37 (2) %"}, {"measurement": "residual metabolism (percentage of control), labetalol LG1", "setting": "[1]; inhibitor 100 μM", "result": "19 (1) % and 21 (1) %"}, {"measurement": "residual metabolism (percentage of control), labetalol LG2", "setting": "[1]; inhibitor 100 μM", "result": "9 (0) % and 13 (3) %"}, {"measurement": "% of control metabolism, raloxifene G1", "setting": "[2]", "result": "39 (7) %"}, {"measurement": "% of control metabolism, raloxifene G2", "setting": "[2]", "result": "47 (8) %"}, {"measurement": "Inhibition of raloxifene glucuronidation, UGT1A9, first line per inhibitor (G1)", "setting": "[3]; inhibitor 5 μM", "result": "53 (2)"}, {"measurement": "Inhibition of raloxifene glucuronidation, UGT1A9, first line per inhibitor (G1)", "setting": "[3]; inhibitor 50 μM", "result": "17 (0)"}, {"measurement": "activity at 15 min, 5 µM", "setting": "[3]; formation of glucuronide G1, % of control metabolism, raloxifene G1, UGT1A9, inhibitor 5 μM", "result": 53, "unit": "%"}, {"measurement": "activity at 15 min, 10 µM", "setting": "[3]; formation of glucuronide G1, % of control metabolism, raloxifene G1, UGT1A9, inhibitor 10 μM", "result": 44, "unit": "%"}, {"measurement": "activity at 15 min, 25 µM", "setting": "[3]; formation of glucuronide G1, % of control metabolism, raloxifene G1, UGT1A9, inhibitor 25 μM", "result": 21, "unit": "%"}, {"measurement": "activity at 15 min, 50 µM", "setting": "[3]; formation of glucuronide G1, % of control metabolism, raloxifene G1, UGT1A9, inhibitor 50 μM", "result": 17, "unit": "%"}, {"measurement": "activity at 15 min, 5 µM", "setting": "[3]; formation of glucuronide G2, % of control metabolism, raloxifene G2, UGT1A9, inhibitor 5 μM", "result": 76, "unit": "%"}, {"measurement": "activity at 15 min, 10 µM", "setting": "[3]; formation of glucuronide G2, % of control metabolism, raloxifene G2, UGT1A9, inhibitor 10 μM", "result": 45, "unit": "%"}, {"measurement": "activity at 15 min, 25 µM", "setting": "[3]; formation of glucuronide G2, % of control metabolism, raloxifene G2, UGT1A9, inhibitor 25 μM", "result": 19, "unit": "%"}, {"measurement": "activity at 15 min, 50 µM", "setting": "[3]; formation of glucuronide G2, % of control metabolism, raloxifene G2, UGT1A9, inhibitor 50 μM", "result": 42, "unit": "%"}, {"measurement": "Inhibition of raloxifene glucuronidation, UGT1A9, second line per inhibitor (G2)", "setting": "[3]; inhibitor 5 μM", "result": "76 (3)"}, {"measurement": "Inhibition of raloxifene glucuronidation, UGT1A9, second line per inhibitor (G2)", "setting": "[3]; inhibitor 10 μM", "result": "45 (1)"}, {"measurement": "Inhibition of raloxifene glucuronidation, UGT1A9, second line per inhibitor (G2)", "setting": "[3]; inhibitor 25 μM", "result": "19 (3)"}, {"measurement": "Inhibition of raloxifene glucuronidation, UGT1A9, second line per inhibitor (G2)", "setting": "[3]; inhibitor 50 μM", "result": "42 (5)"}, {"measurement": "% of control metabolism, raloxifene G1", "setting": "[4]; [8]", "result": "51 (4) %"}, {"measurement": "% of control metabolism, raloxifene G2", "setting": "[4]; [8]", "result": "59 (3) %"}, {"measurement": "% of control metabolism, raloxifene G1", "setting": "[4]; [9]", "result": "61 (4) %"}, {"measurement": "% of control metabolism, raloxifene G2", "setting": "[4]; [9]", "result": "54 (4) %"}, {"measurement": "% of control metabolism, raloxifene G1", "setting": "[4]; [10]", "result": "27 (1) %"}, {"measurement": "% of control metabolism, raloxifene G2", "setting": "[4]; [10]", "result": "30 (1) %"}, {"measurement": "% of control metabolism, raloxifene G1", "setting": "[4]; [11]", "result": "27 (1) %"}, {"measurement": "% of control metabolism, raloxifene G2", "setting": "[4]; [11]", "result": "30 (1) %"}, {"measurement": "% of control metabolism, raloxifene G1", "setting": "[4]; [12]", "result": "7 (1) %"}, {"measurement": "% of control metabolism, raloxifene G2", "setting": "[4]; [12]", "result": "12 (2) %"}, {"measurement": "% of control metabolism, raloxifene G1", "setting": "[4]; [13]", "result": "0 (0), 0 (0) %"}, {"measurement": "% of control metabolism, raloxifene G2", "setting": "[4]; [13]", "result": "0 (0), 0 (0) %"}, {"measurement": "% of control metabolism, raloxifene G1", "setting": "[4]; [14]", "result": "0 (0), 0 (0) %"}, {"measurement": "% of control metabolism, raloxifene G2", "setting": "[4]; [14]", "result": "0 (0), 0 (0) %"}, {"measurement": "residual metabolism (% of control), E2-3-β-D-glucuronide", "setting": "[5]", "result": "18 (1) %"}, {"measurement": "residual metabolism (% of control), E2-17-β-D-glucuronide", "setting": "[5]", "result": "17 (1) %"}, {"measurement": "activity at 15 min, 25 µM", "setting": "[6]; [15]", "result": 56, "unit": "%"}, {"measurement": "activity at 15 min, 50 µM", "setting": "[6]; [15]", "result": 10, "unit": "%"}, {"measurement": "activity at 15 min, 25 µM", "setting": "[6]; [16]", "result": 53, "unit": "%"}, {"measurement": "activity at 15 min, 50 µM", "setting": "[6]; [16]", "result": 8, "unit": "%"}, {"measurement": "residual metabolism (% of control), 2ME2 MG1", "setting": "[7]; inhibitor 25 μM", "result": "13 (1) %"}, {"measurement": "residual metabolism (% of control), 2ME2 MG2", "setting": "[7]; inhibitor 25 μM", "result": "49 (7) %"}, {"measurement": "residual metabolism (% of control), 2ME2 MG1", "setting": "[7]; inhibitor 50 μM", "result": "<LOQ"}, {"measurement": "residual metabolism (% of control), 2ME2 MG2", "setting": "[7]; inhibitor 50 μM", "result": "28 (1) %"}]}]}
